We go through four compounds from ChEMBL document CHEMBL1155503, “Synthesis of neurotensin(8-13)-phosphopeptide heterodimers via click chemistry” (Bioorg Med Chem Lett, 2010).

Where a SMILES comes first, the peptide text is derived from it.

The target in the experiment is Neurotensin receptor type 1 (Homo sapiens, UniProt P30989). As to the kind of experiment: Displacement of [3H]neurotensin from NTR1 in human HT29 cells after 30 mins by liquid scintillation spectrometry. Type of experiment: cell-based. The settings on record: for Activity: HT-29. In general terms: In a radioligand displacement assay an active substance lowers the binding of a labelled ligand.
Neurotensin receptor type 1, sequence (P30989 whole entry): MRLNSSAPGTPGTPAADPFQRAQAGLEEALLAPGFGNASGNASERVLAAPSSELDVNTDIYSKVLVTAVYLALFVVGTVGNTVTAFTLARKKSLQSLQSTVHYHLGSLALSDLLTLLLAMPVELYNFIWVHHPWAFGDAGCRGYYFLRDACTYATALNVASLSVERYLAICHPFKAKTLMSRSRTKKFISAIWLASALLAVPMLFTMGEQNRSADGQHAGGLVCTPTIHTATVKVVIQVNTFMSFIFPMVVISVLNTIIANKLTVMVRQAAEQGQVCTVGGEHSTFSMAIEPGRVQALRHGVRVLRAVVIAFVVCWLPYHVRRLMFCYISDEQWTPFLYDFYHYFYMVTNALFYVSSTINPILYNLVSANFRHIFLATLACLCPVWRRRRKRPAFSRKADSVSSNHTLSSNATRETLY

In the case of `CSCC[C@H](NC(=O)CCCCn1cc(CCCC(=O)N[C@@H](CCCNC(=N)N)C(=O)N[C@@H](CCCNC(=N)N)C(=O)N2CCC[C@H]2C(=O)N[C@@H](Cc2ccc(O)cc2)C(=O)N[C@@H](CC(C)C)C(=O)N[C@@H](CC(C)C)C(=O)O)nn1)C(=O)N[C@@H](CCC(N)=O)C(=O)N[C@@H](CO)C(=O)N[C@H](C(=O)N1CCC[C@H]1C(=O)N[C@@H](CC(C)C)C(=O)O)[C@@H](C)O`, the Activity result was “Dose-dependent effect”.

Usually IC50 stands for the concentration needed to halve the response being measured. Read a low IC50 as greater potency in that assay. Compound `CSCC[C@H](NC(=O)CCCCn1cc(CCCC(=O)N[C@@H](CCCN=C(N)N)C(=O)N[C@@H](CCCN=C(N)N)C(=O)N2CCC[C@H]2C(=O)N[C@@H](Cc2ccc(O)cc2)C(=O)N[C@@H](CC(C)C)C(=O)N[C@@H](CC(C)C)C(=O)O)nn1)C(=O)N[C@@H](CCC(N)=O)C(=O)N[C@@H](CO)C(=O)N[C@H](C(=O)N1CCC[C@H]1C(=O)N[C@@H](CC(C)C)C(=O)O)[C@@H](C)O` yielded an IC50 of 0.7 µM.

`CSCC[C@H](NC(=O)CCCCn1cc(CCCC(=O)N[C@@H](CCCNC(=N)N)C(=O)N[C@@H](CCCNC(=N)N)C(=O)N2CCC[C@H]2C(=O)N[C@@H](Cc2ccc(O)cc2)C(=O)N[C@@H](CC(C)C)C(=O)N[C@@H](CC(C)C)C(=O)O)nn1)C(=O)N[C@@H](CCC(N)=O)C(=O)N[C@@H](CO)C(=O)N[C@H](C(=O)N1CCC[C@H]1C(=O)N[C@@H](CC(C)C)C(=O)O)[C@@H](C)OP(=O)(O)O`: the IC50 is 8.3 µM and the Activity result is “Dose-dependent effect”.

On to `CC(C)C[C@H](NC(=O)[C@H](CC(C)C)NC(=O)[C@H](Cc1ccc(O)cc1)NC(=O)[C@@H]1CCCN1C(=O)[C@H](CCCNC(=N)N)NC(=O)[C@@H](N)CCCNC(=N)N)C(=O)O` (H-RRPYLL-OH), for which the IC50 turned out to be 0.001 µM.
